# Where “and” joins values, the source holds several entries; their conditions need not be identical. Equal values may be shown once.
# Assays:
# [1] = tested on: Bmal1 expression in liver; experiment: Bmal1 expression in liver after i.p. administration; type: in vivo, C57Bl/6 J mice; conditions: mice, 50 mg/kg i.p., 12 h post administration, single animals
# PXR = PXR (Homo sapiens, UniProt O75469); experiment: PXR assay; type: cell-based; conditions: relative to 5μM rifampicin
# Excerpt: We thank the reviewers for the constructive comments, and we have responded to each of the […]
# Overall, this is a commendable structure-function study on the transcriptional repressor, REV-ERBα. It includes the identification of an agonist that belongs to the non-heme class of small ligands. The study combines cell-based and in vitro, in vivo, and crystallographic analyses of the ligand-receptor molecular complex.
# However, as a spring-board for therapeutic drug discovery, there are a few additional issues that may need to be clarified.
# 1. In the HEK293 2-hybrid assay, the ERB agonists are described as activators of transcription.
# Perhaps, they would be more appropriately described as 'repressors'.
# We have updated the manuscript to clarify this issue. In the original manuscript, we used the following to describe how the 2-hybrid assay switches agonists from repressors to activators to allow for better resolution of activity, “This format of the assay essentially functions as a mammalian 2-hybrid assay and detects REVERB agonists as activators of transcription effectively enhancing the sensitivity of such an assay from the typical one hybrid system that detects enhancement of transcriptional repression.” […]
# [2] = target: kappa opioid receptor (KOR) (Homo sapiens, UniProt P41145); experiment: PDSP radioligand binding assay; conditions: secondary full displacement curve, read-out: RLBA Ki
# kappa opioid receptor (KOR), sequence (P41145 whole entry, the tested form may be a part): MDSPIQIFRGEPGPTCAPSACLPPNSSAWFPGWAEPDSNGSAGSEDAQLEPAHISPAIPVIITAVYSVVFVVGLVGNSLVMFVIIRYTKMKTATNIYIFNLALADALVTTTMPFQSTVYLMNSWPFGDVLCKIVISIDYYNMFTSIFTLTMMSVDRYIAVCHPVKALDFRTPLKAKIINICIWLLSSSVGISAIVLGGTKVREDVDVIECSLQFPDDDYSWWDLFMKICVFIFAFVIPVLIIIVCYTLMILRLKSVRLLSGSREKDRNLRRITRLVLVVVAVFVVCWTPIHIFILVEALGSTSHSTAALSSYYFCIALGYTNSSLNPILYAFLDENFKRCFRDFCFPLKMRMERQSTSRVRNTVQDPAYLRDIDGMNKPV
# Excerpt: (§1) We assessed the specificity of STL1267 using both in house nuclear receptor Gal4-NR reporter assays and the NIMH Psychoactive Drug Screening Program (PDSP) assays. We assessed the specificity of STL1267 in the PDSP’s radioligand displacement assays, screening for binding to off-target GPCRs, ion channels, transporters, and other drug targets (Table S1). Of the 43 targets assessed in this panel, we observed no detectable binding in 41 of them. […] Additional assessment in serotonin transporter and kappa opioid receptor activity in a functional assay may be warranted to determine absolute specificity. […]
# (§2) Receptor RLBA Ki Receptor activity
# (§3) Suppl ementary Tabl e 1. Speci fi ci ty of STL1267. […]
# [3] = target: serotonin transporter (SERT) (Homo sapiens, UniProt P31645); experiment: PDSP radioligand binding assay; conditions: secondary full displacement curve, read-out: RLBA Ki
# serotonin transporter (SERT), sequence (P31645 whole entry, species assumed): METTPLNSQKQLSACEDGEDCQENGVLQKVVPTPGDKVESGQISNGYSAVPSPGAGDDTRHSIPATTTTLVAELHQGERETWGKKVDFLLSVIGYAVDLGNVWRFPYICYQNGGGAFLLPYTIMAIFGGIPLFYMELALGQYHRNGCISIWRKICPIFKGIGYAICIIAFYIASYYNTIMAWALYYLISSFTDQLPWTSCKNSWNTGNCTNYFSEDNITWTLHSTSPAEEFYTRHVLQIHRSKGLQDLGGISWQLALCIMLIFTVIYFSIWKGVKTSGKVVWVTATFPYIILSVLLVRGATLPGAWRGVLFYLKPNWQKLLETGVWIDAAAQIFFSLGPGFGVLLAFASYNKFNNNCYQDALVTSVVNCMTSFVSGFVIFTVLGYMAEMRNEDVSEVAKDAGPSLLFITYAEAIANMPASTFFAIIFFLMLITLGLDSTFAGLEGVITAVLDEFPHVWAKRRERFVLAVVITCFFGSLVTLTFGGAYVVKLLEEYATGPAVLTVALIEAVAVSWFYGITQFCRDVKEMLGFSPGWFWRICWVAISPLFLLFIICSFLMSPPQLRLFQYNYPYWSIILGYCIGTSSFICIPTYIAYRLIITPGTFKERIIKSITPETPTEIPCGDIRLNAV
# Excerpt: as §1, §2, §3
# PXR, sequence (O75469 whole entry): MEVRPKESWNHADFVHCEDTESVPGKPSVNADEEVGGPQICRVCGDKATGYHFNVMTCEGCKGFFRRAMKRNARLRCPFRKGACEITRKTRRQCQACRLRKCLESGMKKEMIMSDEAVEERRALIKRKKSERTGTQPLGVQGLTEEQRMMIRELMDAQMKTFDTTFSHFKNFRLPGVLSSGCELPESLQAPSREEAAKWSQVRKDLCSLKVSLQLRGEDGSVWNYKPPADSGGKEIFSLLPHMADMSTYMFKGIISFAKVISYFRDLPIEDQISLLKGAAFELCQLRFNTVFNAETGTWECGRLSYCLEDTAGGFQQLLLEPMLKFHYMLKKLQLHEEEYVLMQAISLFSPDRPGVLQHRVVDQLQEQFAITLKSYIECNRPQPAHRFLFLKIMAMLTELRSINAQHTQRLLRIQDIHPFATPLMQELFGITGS
structure (smiles),measurement,setting,value
Clc1nnc2ccc(Oc3ccccc3-c3ccccc3)nn12 [STL1267],Bmal1 expression in liver,[1],effectively suppressed Bmal1 expression and 0.9475 and 0.6115 and 0.4288 and 0.62 and 0.8061 and 0.4099
same,"activity at PXR, of the activity of 5μM rifampicin",PXR,18%
same,Ki,[2],720 nM
same,Ki,[3],2000 to 4000 nM and 2100 nM

# Source: paper PMC9681850, “Structural basis of synthetic agonist activation of the nuclear receptor REV-ERB” (Nature Communications, 2022)
